System: senescence-accelerated mice (SAMP8)
Experiment: Animal experiment: Morris water maze test (platform test, probe test)
Type: in vivo
Conditions: SAMP8, oral, 30 days, 2.17 mg malvidin-3,5-diglucoside/kg/day
Description: Mice and administration regimens used in the experiment are as described below. Breeding conditions are common to all groups.
Compound (M3,5G)-treated (SAMP8) group: Sample 5 was orally administered to 10 senescence-accelerated mice (SAMP8) (16 weeks old, weighing 28-30 g, Japan SLC, Inc.) for a period of 30 days at a daily dose of 2.17 mg of malvidin-3,5-diglucoside per kg of mouse body weight (designated as “Senescence-accelerated mice+Compound (M3,5G)” in FIGS. 11 to 13).
Extract-treated (SAMP8) group: Sample 4 was orally administered to 10 senescence-accelerated mice (SAMP8) (16 weeks old, weighing 28-30 g, Japan SLC, Inc.) for a period of 30 days at a daily dose of 25 mg of extract powder (2.17 mg of malvidin-3,5-diglucoside in […]) per kg of mouse body weight (designated as “Senescence-accelerated mice+Extract” in FIGS. 11 to 13). […]
Mice were released into the pool and the time taken for the mice to arrive at the platform was measured. […]
On the last day of the test, the platform was removed from the pool and the mice were again released into the pool. The number of times the mouse crossed the former platform location was counted and the time the mouse spent on the former platform location was measured.

COc1cc(-c2[o+]c3cc(O)cc(OC4OC(CO)C(O)C(O)C4O)c3cc2OC2OC(CO)C(O)C(O)C2O)cc(OC)c1O (stereo not shown) [M3,5G, Malvidin-3,5-diglucoside chloride]
learn and memory ability of animals: improvements
